Earlier results, collected in patent US6353019B1, “Macrocyclic lactones, compositions, and methods of use” (United States of America as represented by the Department …, priority 1997, dated 2002).

Details: reported by Suzumure et al., Tetrahedron Lett. 1997; cited from earlier work

In the case of lobatamide A, the antifungal activity is given as “weak antifungal activity”.
